Results from patent publication US20210007356A1, “IMIDE DERIVATIVE AND FUNGICIDE CONTAINING SAID DERIVATIVE AS ACTIVE INGREDIENT” (HOKKO CHEMICAL INDUSTRY CO., LTD., priority 2018, published 2021).
Where two headings read alike, the source gives them in different places.

Tests used:
[1] = test system: rice blast fungus (Pyricularia grisea); assay type: in vivo; settings: flowable diluted to 100 ppm, 10 mL per pot foliage spray on paddy rice; inoculated day after; 7 days after inoculation
[2] = test system: rice sheath blight fungus (Thanatephorus cucumeris); experiment: Test Example 6: control effect against rice sheath blight by box treatment (flowable formulation); settings: flowable 5,000 ppm, 50 mL irrigation of nursery box, paddy rice; inoculated after 3 weeks; 7 days after inoculation
Method: (§1) Control value (%)=[1−(lesion height in sprayed plot/lesion height in unsprayed plot)]×100 (d)
By irrigation, 50 mL of a diluted solution (5,000 ppm) of a flowable prepared according to Formulation Example-3 was applied to a 2.5-leaf-stage paddy rice (variety: Asahi) seedling raised using a nursery box ( 1/10 the area of standard nursery box in size: 12 cm×15 cm×height 4 cm) within a greenhouse. The formulation-treated paddy rice seedling was immediately transplanted at 5 seedlings/pot into a pot ( 1/10000 are in size) filled with paddy soil (flooded). After growing for 3 weeks within a greenhouse, a culture of rice sheath blight fungus (Thanatephorus cucumeris) grown in advance on a rice straw medium was inoculated into the root of the formulation-treated paddy rice, and disease development was promoted in an artificial weather chamber at 26° C. (relative humidity=100%). Seven days after the inoculation, the rice sheath blight lesion height (height from the root) was examined, and the control value (%) was calculated according to formula (d). […] This test was performed with three replications, each consisting of one plot and one pot, per one formulation plot, and its average evaluation value of control effect was determined.

[3] = test system: barley powdery mildew fungus (Erysiphe graminis); experiment: Test Example 2: control effect against barley powdery mildew by foliage application; assay type: in vivo; settings: wettable powder diluted to 100 ppm, 10 mL per pot foliage spray on barley; inoculated day after; 7 days after inoculation
[4] = test system: rice sheath blight fungus (Thanatephorus cucumeris); experiment: Test Example 10: control effect against rice sheath blight by water surface application (flowable formulation); settings: flowable 1,000 ppm, 1 mL dripped in paddy water, inoculated after 1 week, 7 days after inoculation
[5] = test system: rice sheath blight fungus (Thanatephorus cucumeris); experiment: Test Example 8: control effect against rice sheath blight by box treatment (granule); settings: 5 g of granule on nursery box, paddy rice; inoculated after 3 weeks; 7 days after inoculation
From the text: as §1
From the top of a nursery box, 5 g of a granule prepared according to Formulation Example-4 was applied to a 2.5-leaf-stage paddy rice (variety: Asahi) seedling raised using a nursery box ( 1/10 the area of standard nursery box in size: 12 cm×15 cm×height 4 cm) within a greenhouse. The formulation-treated paddy rice seedling was immediately transplanted at 5 seedlings/pot into a pot ( 1/10000 are in size) filled with paddy soil (flooded). After growing for 3 weeks within a greenhouse, a culture of rice sheath blight fungus (Thanatephorus cucumeris) grown in advance on a rice straw medium was inoculated into the root of the formulation-treated paddy rice, and disease development was promoted in an artificial weather chamber at 26° C. (relative humidity=100%). Seven days after the inoculation, the rice sheath blight lesion height (height from the root) was examined, and the control value (%) was calculated according to formula (d). […] This test was performed with three replications, each consisting of one plot and one pot, per one formulation plot, and its average evaluation value of control effect was determined.

[6] = test system: rice blast fungus (Pyricularia grisea); assay type: in vivo; settings: flowable 1,000 ppm, 1 mL dripped in paddy water, inoculated after 1 week, 7 days after inoculation
[7] = test system: rice blast fungus (Pyricularia grisea); assay type: in vivo; settings: 5 g of granule on nursery box, paddy rice; inoculated after 3 weeks; 7 days after inoculation
[8] = test system: rice blast fungus (Pyricularia grisea); assay type: in vivo; settings: flowable 5,000 ppm, 50 mL irrigation of nursery box, paddy rice; inoculated after 3 weeks; 7 days after inoculation

Row | Compound | evaluation value of control effect (from control value, number of lesions) [1] | evaluation value of control effect (from control value, lesion height) [2] | evaluation value of control effect (from control value, lesion area percentage) [3] | evaluation value of control effect (from control value, lesion height) [4] | evaluation value of control effect (from control value, lesion height) [5] | evaluation value of control effect (from control value, number of lesions) [6] | evaluation value of control effect (from control value, number of lesions) [7] | evaluation value of control effect (from control value, number of lesions) [8]
1 | Cc1nn(C)c(F)c1C(=O)N(C(=O)c1snc(Cl)c1Cl)c1ccccc1C(C)CC(C)C (stereo not drawn) [1-131, 3,4-Dichloro-N-{2-(1,3-dimethylbutyl)phenyl}-N-(5-fluoro-1,3-dimethylpyrazole-4-carbonyl)isothiazole-5-carboxamide] | 4 | 5 | 4 | 5 | 5 | – | – | –
2 | Cc1nn(C)c(F)c1C(=O)N(C(=O)c1scnc1C(F)(F)F)c1ccccc1C(C)CC(C)C (stereo not drawn) [1-336] | 4 | – | 4 | – | – | – | – | –
3 | Cc1nnsc1C(=O)N(C(=O)c1cn(C)nc1C(F)F)c1ccccc1-c1cc(F)c(F)c(F)c1 [1-368] | 4 | 5 | 4 | 5 | 5 | – | – | –
4 | Cn1cc(C(=O)N(C(=O)c2scnc2C(F)(F)F)c2ccccc2-c2cc(F)c(F)c(F)c2)c(C(F)F)n1 [1-371] | 4 | – | – | – | – | – | – | –
5 | Cc1nc(C(F)F)c(C(=O)N(C(=O)c2c(C(F)F)nn(C)c2Cl)c2ccccc2C(C)CC(C)C)s1 (stereo not drawn) [7-272] | 4 | – | 4 | – | – | – | – | –
6 | Cc1nc(C(F)(F)F)c(C(=O)N(C(=O)c2snc(Cl)c2Cl)c2c(Br)cc(OC(F)(F)F)cc2Br)s1 [7-279] | 4 | 5 | 4 | 5 | 5 | – | – | –
7 | Cc1nc(C(F)(F)F)c(C(=O)N(C(=O)c2sc(C)nc2C(F)(F)F)c2c(Br)cc(OC(F)(F)F)cc2Br)s1 [7-286] | 4 | 5 | 4 | 5 | 5 | – | – | –
8 | Cc1nc(C(F)F)c(C(=O)N(C(=O)c2cn(C)nc2C(F)F)c2cccc3c2C(C)CC3(C)C)s1 (stereo not drawn) [25-97] | 4 | 5 | 4 | 5 | 5 | – | – | –
9 | Cc1nn(C)c(Cl)c1C(=O)N(C(=O)c1scnc1C(F)F)c1cccc2c1C(C)OC2(C)C (stereo not drawn) [25-119] | 4 | – | – | – | – | – | – | –
10 | Cc1nn(C)c(Cl)c1C(=O)N(C(=O)c1scnc1C(F)(F)F)c1cccc2c1C(C)OC2(C)C (stereo not drawn) [25-120] | 4 | – | – | – | – | – | – | –
11 | Cc1nc(C(F)(F)F)c(C(=O)N(C(=O)c2c(C)nn(C)c2Cl)c2cccc3c2C(C)OC3(C)C)s1 (stereo not drawn) [25-122] | 4 | – | – | – | – | – | – | –
12 | Cc1nc(C(F)F)c(C(=O)N(C(=O)c2sc(C)nc2C(F)(F)F)c2cccc3c2C(C)CC3(C)C)s1 (stereo not drawn) [26-73] | 4 | 5 | 4 | 5 | 5 | – | – | –
13 | Cc1nc(C(F)F)c(C(=O)N(C(=O)c2sc(C)nc2C(F)F)c2cccc3c2C(C)OC3(C)C)s1 (stereo not drawn) [26-78] | – | 5 | 4 | 5 | 5 | 5 | 5 | 5
14 | Cc1nc(C(F)F)c(C(=O)N(C(=O)c2scnc2C(F)(F)F)c2cccc3c2C(C)OC3(C)C)s1 (stereo not drawn) [26-82] | 4 | 5 | – | 5 | 5 | – | – | –
15 | Cc1nc(C(F)F)c(C(=O)N(C(=O)c2cc(Cl)nc(Cl)c2)c2cccc3c2C(C)CC3(C)C)s1 (stereo not drawn) [26-89] | 4 | 5 | 4 | 5 | 5 | – | – | –
16 | Cc1nc(C(F)F)c(C(=O)N(C(=O)c2cc(Cl)no2)c2cccc3c2C(C)OC3(C)C)s1 (stereo not drawn) [26-91] | – | 5 | 4 | 5 | 5 | 5 | 5 | 5
17 | CC1OC(C)(C)c2cccc(N(C(=O)c3cccnc3C(F)F)C(=O)c3snc(Cl)c3Cl)c21 (stereo not drawn) [27-4] | – | 5 | 4 | 5 | 5 | 5 | 5 | 5
18 | Cc1nnsc1C(=O)N(C(=O)c1cccnc1C(F)F)c1cccc2c1C(C)OC2(C)C (stereo not drawn) [27-16] | – | 5 | 4 | 5 | 5 | 5 | 5 | 5
